Here are results for 13 substances from patent US11020482B2, “Methods and compositions related to inhibition of viral entry” (UNIVERSITY OF UTAH RESEARCH FOUNDATION, priority 2011, dated 2021).

Like-named read-outs stand apart in the source and are kept apart here.

The test system of assay [1] is HIV HXB2 strain pseudovirions. The assay can be described thus: Pseudovirion viral infectivity (entry) assay, HXB2. The assay is classed as cell-based, HIV-1. As for the experimental part: (§1) This study included the use of the HIV HXB2 strain and the HIV JRFL strain. Viral infectivity was measured essentially as previously described (Hamburger 2005) with several modifications. 8 μg/mL DEAE-Dextran was used as a fusion enhancer in all assays. Media was changed 22-26 h following infection. […] Fits were weighted by the absolute s.e.m. from quadruplicate points with the minimum allowable error set to 1%.
(§2) Pseudovirion infectivity assays were carried out using HIV HXB2 strain and HIV JRFL strain luciferase reporter pseudovirions (NL4-3 strain) and HOS-CD4-CXCR4 (for HXB2) or HOS-CD4-CCR5 (for JRFL) target cells (Welch, 2007 and 2010). Inhibitors curves were generated using six concentration points measured in quadruplicate, and luciferase counts were normalized to an uninhibited control. Inhibition curves were fit using a standard IC50 equation (1-c/(IC50+c)) weighting each concentration point by its standard error in KaleidaGraph™ (Synergy Software). Reported IC50 values are the average of at least 2 independent assays.

Assay [2] relates to HIV JRFL strain pseudovirions. The assay can be described thus: Pseudovirion viral infectivity (entry) assay, JRFL. Type of assay: cell-based, HIV-1. On the procedure:
as §1, §2

The subject of assay [3] is HIV HXB2 strain pseudovirions. The following applies: Table 5; value marked * (from 20); cited from earlier work.
Another assay deals with E560K/V570I HXB2. Briefly: Pseudovirion entry assay, resistant strain E560K/V570I. Type of assay: cell-based, HIV-1. The following applies: Table 4; resistance mutation discovered against PIE7-dimer. As for the experimental part:
as §2

The test system of the next assay is Q577R HXB2. Briefly: Pseudovirion entry assay, resistant strain Q577R. Conditions: Table 4; resistance mutation discovered against PIE12-trimer. Type of assay: cell-based, HIV-1. On the procedure:
as §2

In assay [4] the test system is HIV JRFL strain pseudovirions. The following applies: Table 5; value marked * (from 20); cited from earlier work.
The subject of assay [5] is replication competent HIV strains that cover envelope subtypes A, B, C, D, E, F, and G. The assay can be described thus: Inhibitory breadth against replication competent virus panel. Type of assay: cell-based, HIV-1.
In another assay the test system is HIV-1 isolate 92BR025. The assay can be described thus: Replication competent virus, PBMC target cells. The following applies: isolate 92BR025, envelope subtype C. The assay is classed as cell-based.
The subject of another assay is HIV-1 isolate JR-CSF. Briefly: Replication competent virus, PBMC target cells. The following applies: envelope subtype B. Type of assay: cell-based.
A further assay concerns HIV-1 isolate 93BR019. Briefly: Replication competent virus, PBMC target cells. The following applies: isolate 93BR019, envelope subtype BF. The assay is classed as cell-based.
In another assay the test system is HIV-1 isolate 92UG037. Briefly: Replication competent virus, PBMC target cells. The following applies: isolate 92UG037, envelope subtype A. Type of assay: cell-based.
A further assay relates to HIV-1 isolate IIIB. Briefly: Replication competent virus, PBMC target cells. Type of assay: cell-based. Conditions: envelope subtype B.
Another assay relates to HIV-1 isolate 93BR020. The assay can be described thus: Replication competent virus, PBMC target cells. Type of assay: cell-based. Conditions: isolate 93BR020, envelope subtype F.
The test system of the next assay is HIV-1 isolate CMU02. Briefly: Replication competent virus, PBMC target cells. The assay is classed as cell-based. The following applies: isolate CMU02, envelope subtype AE.
In a further assay the test system is HIV-1 isolate 93BR029. Briefly: Replication competent virus, PBMC target cells. The assay is classed as cell-based. Conditions: isolate 93BR029, envelope subtype F.
For another assay, the system named is HIV-1 isolate RU570. The assay can be described thus: Replication competent virus, PBMC target cells. The assay is classed as cell-based. Conditions: isolate RU570, envelope subtype G.
The subject of a further assay is HIV-1 isolate 93IN101. The assay can be described thus: Replication competent virus, PBMC target cells. The assay is classed as cell-based. The following applies: isolate 93IN101, envelope subtype C.
For the next assay, the system named is HIV-1 isolate JR-FL. Briefly: Replication competent virus, PBMC target cells. The assay is classed as cell-based. The following applies: envelope subtype B.
The next assay concerns HIV-1 isolate 93TH073. The assay can be described thus: Replication competent virus, PBMC target cells. Type of assay: cell-based. Conditions: isolate 93TH073, envelope subtype E.
The next assay has as its system HIV-1 isolate G3. Briefly: Replication competent virus, PBMC target cells. The assay is classed as cell-based. Conditions: isolate G3, envelope subtype G.
Another assay deals with HIV-1 isolate 92UG046. Briefly: Replication competent virus, PBMC target cells. The assay is classed as cell-based. The following applies: isolate 92UG046, envelope subtype D.
A further assay has as its system HIV-1 isolate Ba-L. The assay can be described thus: Replication competent virus, PBMC target cells. The following applies: envelope subtype B. The assay is classed as cell-based.
The next assay relates to HIV-1 isolate 92UG029. The assay can be described thus: Replication competent virus, PBMC target cells. The assay is classed as cell-based. Conditions: isolate 92UG029, envelope subtype A.
A further assay relates to HIV-1 isolate 92UG001. The assay can be described thus: Replication competent virus, PBMC target cells. The following applies: isolate 92UG001, envelope subtype D. Type of assay: cell-based.
In another assay the test system is HIV-1 isolate CMU06. The assay can be described thus: Replication competent virus, PBMC target cells. The following applies: isolate CMU06, envelope subtype E. Type of assay: cell-based.
The next assay has as its system HIV. The assay can be described thus: Infectivity assay. Type of assay: cell-based.
[6] abbreviates: Table 4, cholesterol potency-enhancing cargo.

HPCDYPEWQWLCRLGK [PIE14]: the IC50 (as a rule, the point on the concentration scale where inhibition reaches its midpoint) turned out to be 33 nM in [1] (Table 2, pseudovirion entry) and 1050 nM in [2] (Table 2, pseudovirion entry).
As to KKGACESPEWRWLCAA [2K-PIE1], the IC50 in [2] (Table 2, pseudovirion entry) is greater than 100000 nM.
On to GACDYPEWQWLCAAGK [PIE7-GK], for which the IC50 in [1] (Table 2, pseudovirion entry) was determined as 390 nM; in assay [2] (Table 2, pseudovirion entry), 15800 nM.
For the substance HPCDYPEWQWLCELGK [PIE12], the IC50 in [1] (Table 2, pseudovirion entry) is 37 nM; in assay [1] (setting [6]), 37 nM; in assay [3], 37 ± 2.3 nM; with E560K/V570I HXB2, 240 nM; in the assay with Q577R HXB2 it was 10200 nM; in assay [4] it was 580 ± 21.4 nM. Also, the IC50 in assay [2] (Table 2, pseudovirion entry) stood at 578 nM; in assay [2] (setting [6]), 580 nM.
For KGACDYPEWQWLCAA [PIE7], the IC50 in assay [1] (Table 2, pseudovirion entry) was 620 nM; in assay [2] (Table 2, pseudovirion entry), 24000 nM.
As to GACDYPEWQWLCAAGKK [PIE7-GKK], the IC50 in [1] (Table 2, pseudovirion entry) was found to be 380 nM; in assay [2] (Table 2, pseudovirion entry) it was 19100 nM.
With enfuvirtide [FUZEON ®], the IC50 in assay [1] (Table 2, pseudovirion entry) is 3.7 nM; in the assay with HIV-1 isolate 92BR025 it was 0.305 µM; in the assay with HIV-1 isolate JR-CSF, 0.00703 µM; in the assay with HIV-1 isolate 93BR019 it was greater than 1 µM; in the assay with HIV-1 isolate 92UG037, 0.0415 µM; in the assay with HIV-1 isolate IIIB it was 0.0283 µM. Further, the IC50 was 0.0585 µM in the assay on HIV-1 isolate 93BR020; 0.0438 µM with HIV-1 isolate CMU02; 0.0186 µM in the assay with HIV-1 isolate 93BR029; 0.037 µM with HIV-1 isolate RU570; 0.0224 µM in the assay on HIV-1 isolate 93IN101; 0.00165 µM in the assay on HIV-1 isolate JR-FL. Further, the IC50 in the assay with HIV-1 isolate 93TH073 stood at 0.198 µM; in the assay on HIV-1 isolate G3, 0.0233 µM; in the assay on HIV-1 isolate 92UG046 it was 0.13 µM; in the assay on HIV-1 isolate Ba-L, 0.0197 µM; with HIV-1 isolate 92UG029 it was 0.191 µM; with HIV-1 isolate 92UG001 it was 0.182 µM. Further, the IC50 in assay [2] (Table 2, pseudovirion entry) came out at 5 nM; in the assay with HIV-1 isolate CMU06 it was 0.00565 µM. The “fold less inhibition than PIE12-trimer” value in [5] (HIV subtype A viruses) is listed as greater than 100 fold; in assay [5] (subtype C viruses), roughly 60 fold.
In the case of KKGACELLGWEWAWLCAA [D10-p5], in the assay on HIV, the “inhibit infection of cells” value is on record as “inhibit infection of cells”. Moreover, the IC50 in assay [2] (Table 2, pseudovirion entry) was greater than 25000 nM.
HACDYPEWQWLCELGK [PIE15]: the IC50 was 67 nM in assay [1] (Table 2, pseudovirion entry) and 1450 nM in [2] (Table 2, pseudovirion entry).
Regarding KGACDYKEWQWLCAA [PIE8], in assay [2] (Table 2, pseudovirion entry), the IC50 is roughly 110000 nM.
HPCDYPEWQWLCKLGK [PIE13]: the IC50 amounted to 41 nM in assay [1] (Table 2, pseudovirion entry) and 1470 nM in assay [2] (Table 2, pseudovirion entry).
Turning to KGACDYPEWQWLCAAGK [K-PIE7-GK], in assay [2] (Table 2, pseudovirion entry), the IC50 was 14800 nM.
Turning to KGACDYPEWRWLCAA [PIE2], in assay [2] (Table 2, pseudovirion entry), the IC50 was 66000 nM.
